This note sets out measurements from ChEMBL document CHEMBL1201862, “PubChem BioAssay data set” (2004).

Test systems include XF498; MOLT-4; HT-29; NCI-H23; HOP-92; UACC-257; CCRF-CEM; SK-MEL-2; SR; OVCAR-3; LOX IMVI; SN12C; NCI-H460; HCT-116; SNB-19; TK-10; NCI-H226; MDA-MB-231; MCF7; MDA-N.
Common to all, as to assay: NCI tumour cell line growth inhibition, 48 h

The structures appear in SMILES notation.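 1) Cells in 96-well plates. 2) Compound, 48 h, 5 concentrations. 3) Linear interpolation between surrounding doses. 4) Unreached endpoint = highest concentration. GI50: concentration for 50% inhibition of growth.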 Active and inactive are the calls of the source. Rule as the data show it: active = GI50 up to about 1.1 µM and inactive = higher.

As for `C1CCC(N=C2N(C3CCCCC3)C(=NC3CCCCC3)N2C2CCCCC2)CC1`, the GI50 was > 100 µM (inactive) with XF498; > 100 µM (inactive) in the assay on MOLT-4; > 100 µM (inactive) in the assay with HT-29; > 100 µM (inactive) in the assay on NCI-H23; 30.3 µM (inactive) in the assay on HOP-92; > 100 µM (inactive) with UACC-257. Further, the GI50 in the assay with CCRF-CEM, in the assay on SK-MEL-2, in the assay on SR, with OVCAR-3, with LOX IMVI and with SN12C was > 100 µM (inactive) in each case. Further, the GI50 with NCI-H460, in the assay with HCT-116, in the assay on SNB-19 and in the assay with TK-10 was > 100 µM (inactive) in each case.
With `NC1CCCCC1.O=P(O)(O)C1(P(=O)(O)O)CC1`, the GI50 with XF498, in the assay on MOLT-4, in the assay with HT-29, in the assay with NCI-H23, in the assay on NCI-H226 and in the assay on UACC-257 was > 100 µM (inactive) throughout. Also, the GI50 in the assay with CCRF-CEM, with SK-MEL-2, in the assay with OVCAR-3, in the assay with LOX IMVI, with SN12C and in the assay with NCI-H460 was > 100 µM (inactive) each time. The GI50 in the assay with HCT-116, with SNB-19 and in the assay on TK-10 was > 100 µM (inactive) each time.
`N#CC(C(=O)CCC(=O)Nc1cccc(C(F)(F)F)c1)c1ccccc1` (configuration not stated): the GI50 in the assay on XF498, in the assay on MOLT-4, with HT-29, in the assay on NCI-H23, in the assay on NCI-H226 and in the assay with HOP-92 was > 100 µM (inactive) in each case. Moreover, the GI50 in the assay with UACC-257, with CCRF-CEM, with SK-MEL-2, with OVCAR-3, in the assay with LOX IMVI and with SN12C was > 100 µM (inactive) each time. Moreover, the GI50 with NCI-H460, with HCT-116, with SNB-19 and in the assay with TK-10 was > 100 µM (inactive) throughout.
`O=c1[nH]c(=O)n(C2OC3COC2C3O)cc1F` (configuration not stated): the GI50 in the assay on XF498 was > 100 µM (inactive); with MOLT-4, > 100 µM (inactive); in the assay with HT-29, > 100 µM (inactive); in the assay with NCI-H23 it was > 100 µM (inactive); in the assay on NCI-H226, 41.5 µM (inactive); in the assay on HOP-92, 29.8 µM (inactive). Besides, the GI50 in the assay with UACC-257, with CCRF-CEM, in the assay with SK-MEL-2, with OVCAR-3, in the assay on LOX IMVI and in the assay with SN12C was > 100 µM (inactive) throughout. For the same molecule, the GI50 with NCI-H460, in the assay with SNB-19 and in the assay with TK-10 was > 100 µM (inactive) in each case.
For the molecule `COc1ccc(/C=C/C(=O)C(C)C)cc1`, the GI50 with XF498 is > 100 µM (inactive); with MOLT-4, 33.2 µM (inactive); with HT-29 it was 29 µM (inactive); in the assay with NCI-H23, 32.6 µM (inactive); with HOP-92, 54.8 µM (inactive); with UACC-257, 63.7 µM (inactive). Moreover, the GI50 with CCRF-CEM was 35.9 µM (inactive); with SK-MEL-2, 27.7 µM (inactive); in the assay with SR it was 25.2 µM (inactive); in the assay on OVCAR-3, 25.9 µM (inactive); in the assay with LOX IMVI, 32.9 µM (inactive); in the assay with SN12C it was 54.3 µM (inactive). The GI50 in the assay with NCI-H460 was 26.8 µM (inactive); with HCT-116, 49.8 µM (inactive); with SNB-19, 46.7 µM (inactive); in the assay on TK-10, 92 µM (inactive).
With `Cc1c2cc[n+](COC(=O)c3ccccc3)cc2c(C)c2c1[nH]c1ccccc12`, the GI50 in the assay on XF498 is 1.62 µM (inactive); in the assay on MOLT-4, 0.255 µM (active); with HT-29 it was 0.453 µM (active); with NCI-H23, 0.849 µM (active); with HOP-92, 0.682 µM (active); with UACC-257, 1.52 µM (inactive). The GI50 with CCRF-CEM was 0.434 µM (active); with SR it was 0.212 µM (active); in the assay with OVCAR-3, 1.37 µM (inactive); in the assay with LOX IMVI it was 0.436 µM (active); in the assay on SN12C, 0.533 µM (active); in the assay with HCT-116, 0.298 µM (active). For the same molecule, the GI50 with SNB-19 is 0.778 µM (active); with TK-10, 1.58 µM (inactive).
As for `O=C1/C(=c2\s/c(=C\c3ccccc3)c(=O)n2-c2ccccc2)SC(=S)N1c1ccccc1`, the GI50 in the assay with MOLT-4 is 45.4 µM (inactive); with HT-29, > 100 µM (inactive); with NCI-H23, 76.7 µM (inactive); in the assay with NCI-H226, 25.5 µM (inactive); with HOP-92, 33 µM (inactive); with UACC-257 it was 72.9 µM (inactive). In addition, the GI50 in the assay with MDA-MB-231 was 20.5 µM (inactive); in the assay with MCF7 it was 53.5 µM (inactive); in the assay on CCRF-CEM, 32.8 µM (inactive); in the assay on SK-MEL-2, 32.3 µM (inactive); in the assay on SR, 10.7 µM (inactive); in the assay with OVCAR-3, 27.2 µM (inactive). The GI50 is 26.9 µM (inactive) in the assay on LOX IMVI; 35.6 µM (inactive) with SN12C; 41 µM (inactive) with NCI-H460; 58.9 µM (inactive) with HCT-116; 46.1 µM (inactive) in the assay with SNB-19; 94.6 µM (inactive) in the assay with MDA-N. Besides, in the assay with TK-10, the GI50 was 28.9 µM (inactive).
`CC(C)(C)C(=O)ON1N=NC2C3CC(OCc4ccccc4)(OCc4ccccc4)C(O3)C21` (configuration not stated): the GI50 in the assay on XF498 is 18.9 µM (inactive); with MOLT-4, 3.41 µM (inactive); in the assay with HT-29 it was 22.3 µM (inactive); with NCI-H23, 19.6 µM (inactive); in the assay on NCI-H226, 17.7 µM (inactive); with HOP-92 it was 12 µM (inactive). Further, the GI50 is 13.7 µM (inactive) in the assay with UACC-257; 4.4 µM (inactive) in the assay with CCRF-CEM; 19.1 µM (inactive) in the assay with SK-MEL-2; 16.9 µM (inactive) in the assay on OVCAR-3; 15.4 µM (inactive) in the assay on LOX IMVI; 19.3 µM (inactive) with SN12C. Besides, the GI50 with NCI-H460 is 24 µM (inactive).
`CC(C)NC(=O)OCc1c(COC(=O)NC(C)C)c(-c2ccc[n+](COC(=O)C(C)(C)C)c2)n2c1CCC2`: the GI50 is 48.2 µM (inactive) in the assay on MOLT-4; > 100 µM (inactive) in the assay on HT-29; 53.1 µM (inactive) in the assay on NCI-H23; > 91 µM (inactive) with NCI-H226; > 91.6 µM (inactive) in the assay with HOP-92; > 100 µM (inactive) in the assay on UACC-257. Further, the GI50 in the assay with MDA-MB-231 is > 100 µM (inactive); in the assay on MCF7, 57.5 µM (inactive); in the assay with CCRF-CEM it was 24.9 µM (inactive); in the assay on SK-MEL-2, > 73.6 µM (inactive); in the assay on SR it was > 70.8 µM (inactive); in the assay on OVCAR-3, > 100 µM (inactive). For the same molecule, the GI50 in the assay with LOX IMVI is 46.6 µM (inactive); with SN12C, 54.1 µM (inactive); with NCI-H460 it was 40.9 µM (inactive); in the assay on HCT-116 it was > 91.6 µM (inactive); in the assay with SNB-19 it was > 100 µM (inactive); in the assay on MDA-N, > 100 µM (inactive). In the assay on TK-10, the GI50 is > 100 µM (inactive).
For the molecule `COC(=O)[C@@H]1C=CCN1S(=O)(=O)c1ccc(C)cc1`, the GI50 in the assay on MOLT-4 is 37.4 µM (inactive); with HT-29 it was > 100 µM (inactive); in the assay on NCI-H23, > 100 µM (inactive); in the assay with NCI-H226, > 100 µM (inactive); in the assay on HOP-92 it was 55.5 µM (inactive); in the assay with UACC-257 it was > 100 µM (inactive). Further, the GI50 with MDA-MB-231 was > 100 µM (inactive); with MCF7, > 100 µM (inactive); in the assay on CCRF-CEM it was 21.8 µM (inactive); with SK-MEL-2 it was > 100 µM (inactive); in the assay on SR it was 20.5 µM (inactive); in the assay on OVCAR-3 it was 50.8 µM (inactive). For the same molecule, the GI50 in the assay on LOX IMVI was > 100 µM (inactive); in the assay on SN12C, > 100 µM (inactive); with NCI-H460, 42.5 µM (inactive); in the assay on HCT-116 it was 34.2 µM (inactive); in the assay on SNB-19, > 100 µM (inactive); in the assay on MDA-N, 29.2 µM (inactive). Moreover, in the assay on TK-10, the GI50 was > 100 µM (inactive).
As to `O=C1Nc2cc([N+](=O)[O-])c(Br)cc2C1=O`, the GI50 with XF498 was 12.1 µM (inactive); in the assay with MOLT-4, 10.4 µM (inactive); in the assay with HT-29, 20.2 µM (inactive); with NCI-H23, 17.3 µM (inactive); in the assay on NCI-H226, 18.5 µM (inactive); in the assay with HOP-92, 24.5 µM (inactive). In addition, the GI50 was 18 µM (inactive) in the assay with UACC-257; 6.01 µM (inactive) with CCRF-CEM; 26.7 µM (inactive) with SK-MEL-2; 10.2 µM (inactive) in the assay on SR; 18.1 µM (inactive) with OVCAR-3; 18.5 µM (inactive) with LOX IMVI. For the same molecule, the GI50 with SN12C is 18.4 µM (inactive); with NCI-H460 it was 30.5 µM (inactive); in the assay with SNB-19, > 10 µM (inactive); in the assay on TK-10, > 100 µM (inactive).
As to `Cc1ccc(C(=O)C(Cl)C(Cl)c2ccc(C)cc2)cc1` (configuration not stated), the GI50 in the assay with MOLT-4 is 2.03 µM (inactive); with HT-29, 2.12 µM (inactive); with NCI-H23, 9.38 µM (inactive); in the assay with NCI-H226, 5.04 µM (inactive); in the assay on HOP-92, 2.4 µM (inactive); in the assay with UACC-257, 1.92 µM (inactive). The GI50 in the assay on MDA-MB-231 was 5.14 µM (inactive); with MCF7, 4.56 µM (inactive); with CCRF-CEM it was 0.622 µM (active); in the assay with SK-MEL-2 it was 16.3 µM (inactive); in the assay on SR it was 1.82 µM (inactive); with OVCAR-3, 3.42 µM (inactive). Further, the GI50 in the assay with LOX IMVI was 1.87 µM (inactive); in the assay with SN12C it was 1.82 µM (inactive); with NCI-H460, 8.38 µM (inactive); with HCT-116, 1.88 µM (inactive); in the assay with SNB-19 it was 8.2 µM (inactive); in the assay on MDA-N it was 2.21 µM (inactive). In addition, the GI50 in the assay with TK-10 is 2.99 µM (inactive).
